From US12637479B2, “Low energy gap small molecule material and organic optoelectronic device using the same” (Raynergy Tek Incorporation, priority 2021, dated 2026)

Experiments:
Assay type in all cases: physicochemical
[1] = Solubility measurement in o-xylene; conditions: 8 mg sample in 1 mL o-xylene
Source text: Among them, “O” means complete dissolution, and “X” means incomplete dissolution. […] In the art, it is an industry trend to use non-halogenated green solvents. Green solvents generally come from renewable resources or can be degraded by soil organisms or other substances, have a short half-life, and are easily decayed into low-toxic and non-toxic substances. Therefore, green solvents are generally less harmful to biological health and the environment than general solvents that are easily chlorinated or highly toxic. Green solvents are also called environmentally friendly solvents. O-xylene is a non-halogen green solvent.

[2] = UV-Vis-NIR absorption spectra in film, optical energy gap from absorption onset
Experimental: (§1) Please refer to FIG. 2 to FIG. 4 and Table 1.
(§2) The highest occupied molecular orbital (HOMO) is calculated from HOMO=−|4.71÷E^xo−E^ferroncene|eV. The optical energy gap
[formula] of the material is known from the absorption onset position
(§3) [formula] of the UV-Vis-NIR absorption spectrum in film state. The lowest unoccupied molecular orbital (LUMO) is calculated from LUMO=HOMO+Eg eV.

[3] = Energy levels by cyclic voltammetry (HOMO, LUMO)
Experimental: as §2, §3

[4] = UV-Vis-NIR absorption spectra in chloroform solution
Experimental: as §1, §2

- Solubility [1]: ◯
- λfilm^max ([2]; film): 1029 nm
- λfilm^onset ([2]; film): 1455 nm
- Eg^opt ([2]; from absorption onset in film state): 0.85 eV
- LUMO ([3]; LUMO=HOMO+Eg): −4.32 eV
- HOMO ([3]; cyclic voltammetry): −5.17 eV
- λsoln^max ([4]; chloroform solution): 965 nm
- ε ([4]; maximum absorption coefficient): 1.41 10^5 cm^−1 M^−1
SMILES: CCCCCCCCCCCCc1cc(-c2c3c(c(-c4cc(CCCCCCCCCCCC)c(-c5cc6c(s5)-c5sc(-c7sc(-c8c9c(c(-c%10cc(CCCCCCCCCCCC)c(/C=C%11\C(=O)c%12cc(F)c(F)cc%12C%11=C(C#N)C#N)s%10)c%10nn(CC(CC)CCCC)nc8%10)N=S=N9)cc7CCCCCCCCCCCC)cc5C6(c5cc(CCCCCC)cc(CCCCCC)c5)c5cc(CCCCCC)cc(CCCCCC)c5)s4)c4nn(CC(CC)CCCC)nc24)N=S=N3)sc1/C=C1\C(=O)c2cc(F)c(F)cc2C1=C(C#N)C#N (centres unmarked) [Q4]
